Results reported in ChEMBL document CHEMBL4828722, “The synthesis and bioactivity of pyrrolo[2,3-d]pyrimidine derivatives as tyrosine kinase inhibitors for NSCLC cells with EGFR mutations” (Eur J Med Chem, 2021).
Activity calls are given as the source filed them. No cut-off for these calls is given here.

Columns and labels:
[1] = tested on: Epidermal growth factor receptor (Homo sapiens), P00533 [L858R,T790M]; assay: Inhibition of […] EGFR L858R/T790M mutant (unknown origin) at 2 nM pretreated with substrate for 10 mins followed by ATP addition measured after 60 mins by mobility shift assay relative to control
[2] = target: Epidermal growth factor receptor (Homo sapiens, UniProt P00533, C797S); assay: Inhibition of […] EGFR C797S mutant (unknown origin) pretreated with substrate for 10 mins followed by ATP addition measured after 60 mins by mobility shift assay
[3] = tested on: Epidermal growth factor receptor (Homo sapiens), P00533 [C797S]; assay: Inhibition of […] EGFR C797S mutant (unknown origin) at 2 nM pretreated with substrate for 10 mins followed by ATP addition measured after 60 mins by mobility shift assay relative to control
NCI-H1975 [4] = assay: Cytotoxicity against human NCI-H1975 cells harboring EGFR L858R/T790M mutant assessed as reduction in cell viability measured after 48 hrs by CCK8 assay; assay type: functional, cell-based; conditions: NCI-H1975, 48 h
A549 = assay: Induction of cell cycle arrest in human A549 cells harboring wild type EGFR assessed as accumulation of cells in G0/G1 phase at 5 uM measured after 18 hrs by PI/RNaseA staining based flow cytometry analysis (Rvb= 58.27%); assay type: functional
[5] = target: T1, Epidermal growth factor receptor (Homo sapiens, UniProt P00533); assay: Inhibition of wild type EGFR phosphorylation at Tyr1068 residue in human HBE cells up to 5 uM incubated for 2 hrs by immunoblotting analysis; assay type: cell-based; conditions: dose microM <=5, time 2.0 hrs
[6] = tested on: Epidermal growth factor receptor (Homo sapiens), P00533 [UNDEFINED MUTATION]; assay: Inhibition of […] EGFR Del E746/A750 mutant (unknown origin) at 2 nM pretreated with substrate for 10 mins followed by ATP addition measured after 60 mins by mobility shift assay relative to control
[7] = tested on: Epidermal growth factor receptor (Homo sapiens), P00533 [T790M]; assay: Inhibition of […] EGFR T790M mutant (unknown origin) at 2 nM pretreated with substrate for 10 mins followed by ATP addition measured after 60 mins by mobility shift assay relative to control
NCI-H1975 [8] = assay: Induction of cell cycle arrest in human NCI-H1975 cells harboring EGFR L858R/T790M mutant assessed as accumulation of cells in G0/G1 phase at 1 uM measured after 18 hrs by PI/RNaseA staining based flow cytometry analysis (Rvb= 42.69%); assay type: functional
[9] = target: Epidermal growth factor receptor (Homo sapiens, UniProt P00533, DELE746); assay: Inhibition of […] EGFR Del E746/A750 mutant (unknown origin) pretreated with substrate for 10 mins followed by ATP addition measured after 60 mins by mobility shift assay
[10] = target: T1, Epidermal growth factor receptor; assay: Inhibition of […] EGFR phosphorylation at Tyr992 residue in human NCI-H1975 cells at 0.1 to 5 uM incubated for 2 hrs by immunoblotting analysis; assay type: cell-based; conditions: dose 0.1-5 µM
[11] = target: Epidermal growth factor receptor (Homo sapiens, UniProt P00533, L858R/T790M); assay: Inhibition of […] EGFR L858R/T790M mutant (unknown origin) pretreated with substrate for 10 mins followed by ATP addition measured after 60 mins by mobility shift assay
[12] = target: T1, Epidermal growth factor receptor; assay: Inhibition of […] EGFR phosphorylation at Tyr992 residue in human HCC827 cells at 0.1 to 5 uM incubated for 2 hrs by immunoblotting analysis; assay type: cell-based; conditions: dose 0.1-5 µM
[13] = target: T1, Epidermal growth factor receptor; assay: Inhibition of wild type EGFR (unknown origin) pretreated with substrate for 10 mins followed by ATP addition measured after 60 mins by mobility shift assay
[14] = target: T1, Epidermal growth factor receptor; assay: Inhibition of wild type EGFR phosphorylation at Tyr992 residue in human HBE cells up to 5 uM incubated for 2 hrs by immunoblotting analysis; assay type: cell-based; conditions: dose microM <=5, time 2.0 hrs
[15] = target: Epidermal growth factor receptor (Homo sapiens, UniProt P00533, L858R); assay: Inhibition of […] EGFR L858R mutant (unknown origin) pretreated with substrate for 10 mins followed by ATP addition measured after 60 mins by mobility shift assay
[16] = target: T1, Epidermal growth factor receptor; assay: Inhibition of […] EGFR phosphorylation at Tyr1068 residue in human NCI-H1975 cells at 0.1 to 5 uM incubated for 2 hrs by immunoblotting analysis; assay type: cell-based; conditions: dose 0.1-5 µM
[17] = tested on: Epidermal growth factor receptor (Homo sapiens), P00533 [L858R]; assay: Inhibition of […] EGFR L858R mutant (unknown origin) at 2 nM pretreated with substrate for 10 mins followed by ATP addition measured after 60 mins by mobility shift assay relative to control
[18] = tested on: Epidermal growth factor receptor (Homo sapiens), P00533 [L858R,T790M,C797S]; assay: Inhibition of […] EGFR L858R/T790M/C797S mutant (unknown origin) at 2 nM pretreated with substrate for 10 mins followed by ATP addition measured after 60 mins by mobility shift assay relative to control
[19] = target: Epidermal growth factor receptor (Homo sapiens, UniProt P00533, C797S/L858R/T790M); assay: Inhibition of […] EGFR L858R/T790M/C797S mutant (unknown origin) pretreated with substrate for 10 mins followed by ATP addition measured after 60 mins by mobility shift assay
[20] = target: T1, Epidermal growth factor receptor; assay: Inhibition of […] EGFR phosphorylation at Tyr1068 residue in human HCC827 cells at 0.1 to 5 uM incubated for 2 hrs by immunoblotting analysis; assay type: cell-based; conditions: dose 0.1-5 µM
NCI-H460 = assay: Cytotoxicity against human NCI-H460 cells harboring wild type EGFR assessed as reduction in cell viability measured after 48 hrs by CCK8 assay; assay type: functional, cell-based; conditions: NCI-H460, 48 h
HCC827 [21] = assay: Induction of apoptosis in human HCC827 cells harboring EGFR del E746-A750 mutant assessed as dead cells at 0.5 uM measured after 18 hrs by Annexin V-FITC/PI staining based flow cytometry analysis (Rvb= […]); assay type: functional
[22] = target: T1, Epidermal growth factor receptor; assay: Inhibition of wild type EGFR (unknown origin) at 80 nM pretreated with substrate for 10 mins followed by ATP addition measured after 60 mins by mobility shift assay relative to control
[23] = target: Epidermal growth factor receptor (Homo sapiens, UniProt P00533, T790M); assay: Inhibition of […] EGFR T790M mutant (unknown origin) pretreated with substrate for 10 mins followed by ATP addition measured after 60 mins by mobility shift assay
[24] = Cytotoxicity against human HBE cells assessed as reduction in cell viability measured after 48 hrs by CCK8 assay; assay type: cell-based
HCC827 [25] = assay: Potency index, ratio of avitinib IC50 to test compound IC50 for cytotoxicity against human HCC827 cells harboring EGFR del E746-A750 mutant assessed as reduction in cell viability measured after 48 hrs by CCK8 assay; assay type: functional
[26] = Selectivity index, ratio of IC50 for cytotoxicity against human A549 cells harboring wild type EGFR to IC50 for cytotoxicity against human HCC827 cells harboring EGFR del E746-A750 mutant assessed as reduction in cell viability measured after 48 hrs by CCK8 assay
[27] = Selectivity index, ratio of IC50 for cytotoxicity against human NCI-H460 cells harboring wild type EGFR to IC50 for cytotoxicity against human HCC827 cells harboring EGFR del E746-A750 mutant assessed as reduction in cell viability measured after 48 hrs by CCK8 assay

T1 sequence (P00533 whole entry): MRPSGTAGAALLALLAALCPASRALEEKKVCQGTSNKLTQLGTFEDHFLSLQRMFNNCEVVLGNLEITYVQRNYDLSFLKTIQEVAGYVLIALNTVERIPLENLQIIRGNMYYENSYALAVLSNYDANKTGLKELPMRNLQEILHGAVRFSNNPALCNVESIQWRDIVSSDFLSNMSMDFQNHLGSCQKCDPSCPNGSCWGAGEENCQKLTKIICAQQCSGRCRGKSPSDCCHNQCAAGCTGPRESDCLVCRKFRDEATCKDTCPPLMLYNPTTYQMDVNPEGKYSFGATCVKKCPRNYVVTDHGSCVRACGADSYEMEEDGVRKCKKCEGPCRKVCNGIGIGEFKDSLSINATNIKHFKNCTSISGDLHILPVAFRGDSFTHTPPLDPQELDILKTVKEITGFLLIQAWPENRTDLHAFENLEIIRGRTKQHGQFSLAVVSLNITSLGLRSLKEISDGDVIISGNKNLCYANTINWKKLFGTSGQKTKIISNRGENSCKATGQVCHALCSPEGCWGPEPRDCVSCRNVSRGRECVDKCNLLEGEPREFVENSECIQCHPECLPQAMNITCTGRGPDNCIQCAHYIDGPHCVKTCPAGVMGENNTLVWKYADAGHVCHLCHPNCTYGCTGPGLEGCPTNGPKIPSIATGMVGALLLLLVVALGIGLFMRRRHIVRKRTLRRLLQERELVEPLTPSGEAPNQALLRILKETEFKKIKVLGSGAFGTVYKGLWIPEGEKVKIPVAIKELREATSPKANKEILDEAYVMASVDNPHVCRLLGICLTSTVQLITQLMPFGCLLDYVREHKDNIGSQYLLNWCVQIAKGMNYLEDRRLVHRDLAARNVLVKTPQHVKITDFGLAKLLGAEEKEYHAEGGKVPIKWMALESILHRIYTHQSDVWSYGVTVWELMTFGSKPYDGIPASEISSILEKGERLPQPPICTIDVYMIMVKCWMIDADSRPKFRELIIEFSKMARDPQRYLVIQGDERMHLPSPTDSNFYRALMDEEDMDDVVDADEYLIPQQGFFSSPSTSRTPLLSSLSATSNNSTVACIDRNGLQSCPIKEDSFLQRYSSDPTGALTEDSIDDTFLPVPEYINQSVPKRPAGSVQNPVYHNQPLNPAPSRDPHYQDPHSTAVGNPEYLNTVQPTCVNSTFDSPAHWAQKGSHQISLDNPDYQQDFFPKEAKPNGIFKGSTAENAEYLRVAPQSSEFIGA
Chain of Epidermal growth factor receptor (Homo sapiens, UniProt P00533, L858R/T790M) (P00533 25-1210 T790M/L858R limits assumed): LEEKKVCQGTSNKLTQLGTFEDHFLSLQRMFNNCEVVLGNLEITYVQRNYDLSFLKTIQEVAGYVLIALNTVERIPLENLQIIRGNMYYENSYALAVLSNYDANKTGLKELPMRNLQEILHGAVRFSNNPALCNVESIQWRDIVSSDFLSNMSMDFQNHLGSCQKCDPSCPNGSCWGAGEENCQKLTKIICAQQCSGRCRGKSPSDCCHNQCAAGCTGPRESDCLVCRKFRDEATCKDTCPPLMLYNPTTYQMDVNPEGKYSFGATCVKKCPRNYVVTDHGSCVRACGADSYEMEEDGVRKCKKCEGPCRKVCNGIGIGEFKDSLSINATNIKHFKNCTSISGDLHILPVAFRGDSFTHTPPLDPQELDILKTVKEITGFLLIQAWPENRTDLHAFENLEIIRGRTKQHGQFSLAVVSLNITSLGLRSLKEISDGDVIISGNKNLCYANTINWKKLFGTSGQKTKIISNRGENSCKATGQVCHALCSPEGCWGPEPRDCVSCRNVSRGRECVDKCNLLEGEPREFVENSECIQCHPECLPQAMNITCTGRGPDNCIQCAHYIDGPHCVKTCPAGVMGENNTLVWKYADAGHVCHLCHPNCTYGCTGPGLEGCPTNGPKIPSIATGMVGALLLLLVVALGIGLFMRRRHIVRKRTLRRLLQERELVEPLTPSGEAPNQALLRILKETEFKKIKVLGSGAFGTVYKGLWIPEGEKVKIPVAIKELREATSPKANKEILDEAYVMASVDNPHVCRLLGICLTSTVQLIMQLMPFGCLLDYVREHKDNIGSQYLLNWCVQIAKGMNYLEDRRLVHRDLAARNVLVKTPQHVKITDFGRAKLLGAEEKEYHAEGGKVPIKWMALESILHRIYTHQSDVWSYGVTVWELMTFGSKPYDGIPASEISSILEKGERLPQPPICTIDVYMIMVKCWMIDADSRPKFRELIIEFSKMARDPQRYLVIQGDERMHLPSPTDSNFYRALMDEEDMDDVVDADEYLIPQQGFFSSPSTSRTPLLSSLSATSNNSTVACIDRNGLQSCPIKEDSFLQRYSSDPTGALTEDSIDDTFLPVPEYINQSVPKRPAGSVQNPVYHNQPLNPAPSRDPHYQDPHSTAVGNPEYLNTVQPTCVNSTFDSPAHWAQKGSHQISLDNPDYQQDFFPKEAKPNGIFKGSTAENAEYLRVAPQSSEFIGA
Chain of Epidermal growth factor receptor (Homo sapiens), P00533 [UNDEFINED MUTATION] (P00533 whole entry, looked up, stated change not applied): as the sequence (P00533 whole entry) above
Chain of Epidermal growth factor receptor (Homo sapiens), P00533 [L858R] (P00533 whole entry L858R): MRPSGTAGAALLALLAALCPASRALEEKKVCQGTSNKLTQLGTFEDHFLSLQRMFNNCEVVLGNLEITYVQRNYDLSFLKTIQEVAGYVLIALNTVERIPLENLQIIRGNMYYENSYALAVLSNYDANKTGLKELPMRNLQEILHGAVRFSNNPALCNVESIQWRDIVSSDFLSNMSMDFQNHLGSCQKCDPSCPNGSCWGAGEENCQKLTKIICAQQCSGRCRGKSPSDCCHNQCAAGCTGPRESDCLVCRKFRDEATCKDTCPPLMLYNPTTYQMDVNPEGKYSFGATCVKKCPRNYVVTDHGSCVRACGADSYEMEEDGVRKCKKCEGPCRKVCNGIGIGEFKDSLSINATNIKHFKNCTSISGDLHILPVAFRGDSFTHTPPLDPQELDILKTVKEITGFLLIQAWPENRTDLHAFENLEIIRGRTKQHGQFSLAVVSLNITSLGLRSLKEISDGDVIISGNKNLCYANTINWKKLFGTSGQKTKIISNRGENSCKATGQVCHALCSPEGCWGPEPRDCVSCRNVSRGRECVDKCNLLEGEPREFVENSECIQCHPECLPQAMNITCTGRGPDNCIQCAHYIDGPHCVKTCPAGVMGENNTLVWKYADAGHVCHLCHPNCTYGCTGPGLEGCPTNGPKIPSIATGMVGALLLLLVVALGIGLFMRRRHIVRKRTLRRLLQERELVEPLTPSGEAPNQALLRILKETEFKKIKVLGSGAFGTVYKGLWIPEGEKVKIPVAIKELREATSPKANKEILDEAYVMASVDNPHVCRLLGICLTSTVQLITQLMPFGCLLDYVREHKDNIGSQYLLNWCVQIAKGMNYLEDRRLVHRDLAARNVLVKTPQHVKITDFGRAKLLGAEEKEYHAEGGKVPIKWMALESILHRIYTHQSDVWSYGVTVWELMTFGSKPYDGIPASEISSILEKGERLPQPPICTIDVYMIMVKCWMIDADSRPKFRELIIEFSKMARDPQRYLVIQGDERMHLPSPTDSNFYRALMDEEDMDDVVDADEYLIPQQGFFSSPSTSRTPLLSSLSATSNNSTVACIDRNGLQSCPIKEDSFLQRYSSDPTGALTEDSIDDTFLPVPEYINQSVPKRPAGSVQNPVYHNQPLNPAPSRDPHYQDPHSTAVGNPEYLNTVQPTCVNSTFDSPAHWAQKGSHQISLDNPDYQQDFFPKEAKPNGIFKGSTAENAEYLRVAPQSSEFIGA

| SMILES | inhibition [1] | IC50 [2] | inhibition [3] | IC50 (NCI-H1975 [4]) | Activity (A549) | inhibition [5] | inhibition [6] | inhibition [7] | Activity (NCI-H1975 [8]) | IC50 [9] | inhibition [10] | IC50 [11] | inhibition [12] | IC50 [13] | inhibition [14] | IC50 [15] | inhibition [16] | inhibition [17] | inhibition [18] | IC50 (NCI-H460) | also measured |
| --- | --- | --- | --- | --- | --- | --- | --- | --- | --- | --- | --- | --- | --- | --- | --- | --- | --- | --- | --- | --- | --- |
| C=CC(=O)Nc1cccc(Oc2nc(Nc3ccc(N4CCN(C)CC4)c([N+](=O)[O-])c3)nc3[nH]ccc23)c1 | 49% | 1.2 nM | 3.7% | 3100 nM | 82.55% | inactive | 23% | 91% | 72.08% | 10 nM | Active | 7.3 nM | Active | 111 nM | inactive | 0.39 nM | Active | 19% | 5.8% | 8020 nM | IC50 [19]: 829 nM; inhibition [20]: Active; Activity (HCC827 [21]): 1.4%; inhibition [22]: 37%; IC50 [23]: > 10000 nM; IC50 [24]: 7540 nM |
| C=CC(=O)Nc1cccc(Oc2nc(Nc3ccc(N4CCN(C)CC4)c(N)c3)nc3[nH]ccc23)c1 | 85% | 0.76 nM | 16% | 3840 nM | 85.05% | inactive | 63% | 96% | 69.17% | 2 nM | Active | 2.2 nM | Active | 22 nM | inactive | 0.21 nM | Active | 40% | 8% | 26700 nM | Ratio IC50 (HCC827 [25]): 2; Selectivity Index [26]: 132; IC50 [19]: 119 nM; inhibition [20]: Active; Activity (HCC827 [21]): 2.1%; inhibition [22]: 63%; IC50 [23]: > 10000 nM; IC50 [24]: 22700 nM; Selectivity Index [27]: 579.7 |
| C=CC(=O)Nc1cccc(Oc2nc(Nc3ccc(N4CCN(C)CC4)c(F)c3)nc3[nH]ccc23)c1 [ABIVERTINIB] | – | – | – | – | 77.6% | – | – | – | – | – | – | – | – | – | – | – | – | – | – | 6020 nM | – |
